We go through 3 compounds from patent publication US20160220489A1, “Intranasal Formulation for the Treatment of Cardiopulmonary Resuscitation (CPR), Cardiac Life Support (CLS), Anaphylaxis and/or Anaphylactoid Reactions” (G2B Pharma Inc., priority 2013, published 2016).

The conditions of series [1]: nasal spray, loading dose 5 mg, normal human subjects; cited from earlier work.
The text on series [2]: Unless otherwise indicated, “primary particle diameter” can refer to the particle size distribution of a powder in its non-aggregated state. Primary particle diameter can be determined using a laser-diffraction particle size distribution analyzer. In some embodiments, the particle size analyzer can be Mastersizer 2000 manufactured by Malvern Instruments Limited.
Unless otherwise indicated, “median diameter” can refer to a diameter that divides particles into two groups of equal numbers: a group with greater diameters and a group with smaller diameters. A median diameter can be determined using a laser-diffraction particle size distribution analyzer and can correspond to 50% volume in a determined cumulative particle size distribution curve. In some embodiments, the particle size analyzer can be Mastersizer 2000 manufactured by Malvern Instruments Limited.
Data Handling • 1. Using Mastersizer 2000 software, combine particle size distribution data obtained for each dispersion pressure. • 2. If necessary, conduct particle size analysis using Wet Dispersion Method. • 3. Choose the optimum dispersion pressure.

The test system of another series is rabbits. The note with it: inhalation in rabbits; cited from earlier work.
The conditions of series [3]: cited from earlier work.
In the next series the test system is rats. The note with it: intramuscular administration in rats; cited from earlier work.
A further series deals with MUS. The note with it: in vivo; cited from earlier work.
The mark [4] stands for this setting: Dry Dispersion Method, dispersion air pressure 0.5 bar.
Where [5] appears, read: Dry Dispersion Method, dispersion air pressure 1.0 bar.
The mark [6] stands for this setting: Dry Dispersion Method, dispersion air pressure 2.0 bar.
Setting [7] is: Dry Dispersion Method, dispersion air pressure 3.0 bar.
Setting [8] is: Dry Dispersion Method, dispersion air pressure 4.0 bar.

SMILES strings stand for the structures. Counter-ions that a name gives are not always drawn. Like-named read-outs stand apart in the source and are kept apart here.

For the compound `CNC[C@H](O)c1ccc(O)c(O)c1` [epinephrine], the “Tmax (peak plasma concentration reached)” value in series [1] was 1.17 ± 0.283 h. The “Volume under 10%” value in series [2] (setting [4]) is 17.8 μm; in series [2] (setting [5]), 15.5 μm; in series [2] (setting [6]), 4.8 μm; in series [2] (setting [7]) it was 2.7 μm; in series [2] (setting [8]) it was 2.4 μm; in series [2] (Wet Dispersion Method), 18.1 μm. The “Volume under 50%” value in series [2] (setting [4]) was found to be 29.1 μm; in series [2] (setting [5]) it was 27.2 μm; in series [2] (setting [6]), 22.6 μm; in series [2] (setting [7]), 18.8 μm; in series [2] (setting [8]), 18.2 μm; in series [2] (Wet Dispersion Method) it was 31.2 μm. Besides, the “Volume under 90%” value in series [2] (setting [4]) came to 45.9 μm; in series [2] (setting [5]) it was 43.6 μm; in series [2] (setting [6]) it was 41.8 μm; in series [2] (setting [7]), 38.6 μm; in series [2] (setting [8]) it was 38.3 μm; in series [2] (Wet Dispersion Method), 50.7 μm. The values for the LD50 in the series with rabbits and in the series on rats were 2.5 mg/kg and 3500 mg/kg, respectively. Further, the “greatest epinephrine plasma concentrations” value in series [3] (intranasal 7.5 mg/kg/nostril of epinephrine after […] of phentolamine, dog) is ~1,400 ng/mL.
For the compound `C[C@H](CCC(=O)NCCS(=O)(=O)O)[C@H]1CC[C@H]2[C@@H]3CC[C@@H]4C[C@H](O)CC[C@]4(C)[C@H]3C[C@H](O)[C@]12C` [bile salts, taurodeoxycholic acid], the “nasal mucosal tissue damage” value in series [3] (used as mucosal permeation enhancers (1% taurodeoxycholic acid)) is “severe nasal mucosal tissue damage”.
As for `Cc1ccc(N(CC2=NCCN2)c2cccc(O)c2)cc1` [phentolamine], in the series on MUS, the “IVN-MUS LD50” value was 75 mg/kg.
